Patent US20260007673A1, “ROCK2 INHIBITORS FOR THE TREATMENT OF VIRAL INFECTIONS” (GRAVITON BIOSCIENCE BV, priority 2022, published 2026)

Experiments:
SARS-CoV-2 Delta variant = type: in vivo, mice; conditions: 100 and 300 mg/kg daily oral gavage
[1] = tested on: SARS-CoV-2 Omicron variant; type: in vivo, mice; conditions: 100 and 300 mg/kg daily oral gavage, 7, 14, 21 days (FIG. 15B)

## Cn1c(C(=O)N2CC(F)(F)C2)cc2ccc(-c3nccc(Nc4ccc(-c5cn[nH]c5)cc4)n3)cc21 [Compound 2, (6-(4-((4-(1H-pyrazol-4-yl)phenyl)amino)pyrimidin-2-yl)-1-methyl-1H-indol-2-yl)(3,3-difluoroazetidin-1-yl)methanone]
SARS-CoV-2 Delta variant
  viral load in the lung: effect was observed
[1]
  viral load in the lung: effect was observed
